From paper PMC10076467 (EJNMMI Research, 2023)
Read-outs that look alike come from different tables or passages of the source.

Columns and labels:
[1] = rat, cited from earlier work
[2] = target: guinea pig σ1 receptor (Cavia porcellus, UniProt Q60492); assay: PDSP σ1 receptor binding
From the text: (§1) NR2B-Me was submitted to the PDSP for assessment of binding affinity against a wide range of other receptors and binding sites. A full listing of these receptors and binding sites is given in the Supplemental Results. Detailed assay protocols are available at the PDSP website (http://pdsp.cwru.edu).
(§2) Assessment of Binding Affinity against a Wide Range of Other Receptors and Binding Sites. NR2B-Me was submitted to the National Institute of Mental Health Psychoactive Drug Screening program (NIMH-PDSP) to assess binding affinity against a wide range of other receptors and binding sites (5-HT1A, 1B, 1D, 1E, 2A, 2A agonist, 2A antagonist, 2B, 2B agonist, 2B antagonist, 2C, 2C agonist, 2C antagonist, 3, 5A, 6, 7; α2; α2β2, α2β2, α3β2, α3β4, α4β2, α4β4, α7; α1A, 1A agonist, 1B, 1B agonist, 1B antagonist, 2A-2C; AMPA*; β1-3; BZPa1-3, a5, a6, rat brain site; Ca^2+-Channel; CB1-2, D1, 2, 2 agonist, 2 antagonist, 3-5; DAT; DOR; EP1-4; GABAA,B; GPR40,41,43; H1-4; HERG; IMIDAZOLINE 1; KA-R*; KOR, KORagonist, antagonist; M1, 1 agonist, 1 antagonist, 2, 3, 3 agonist, 3 antagonist, 4, 5, 5 agonist, 5 antagonist; MDR 1; mGluR1A,2,4,5,5-cloned,5-rat brain,6,8; MOR; Na^+-Channel; NET; NK1, 1 antagonist, 2, 2 antagonist, 3, 3 antagonist; NMDA; NMDA/MK801; NT-1; OXYTOCINagonist, antagonist; PAR1agonist, antagonist; PCP; PKCA, B, D, E, G; PTHR2, Purinergicagonist, antagonist; SET; σ1,2; V1, 1 agonist, 1 antagonist, 2, 2 agonist, 2 antagonist, 3, 3 agonist, 3 antagonist, VMAT1, 2).

[3] = target: T1, PC12 cell σ2 receptors (Rattus norvegicus, UniProt Q5U3Y7); assay: PDSP σ2 receptor binding
T1 construct: endogenous in cells; host or cells: PC12 cells
T1 sequence (Q5U3Y7 1-176): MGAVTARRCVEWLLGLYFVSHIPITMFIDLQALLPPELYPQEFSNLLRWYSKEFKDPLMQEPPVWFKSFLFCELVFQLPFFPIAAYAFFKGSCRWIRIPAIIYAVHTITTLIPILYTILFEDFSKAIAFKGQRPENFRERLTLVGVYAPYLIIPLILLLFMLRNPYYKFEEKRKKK
From the text: as §1, §2

[4] = target: T2, GluN2B receptors (Rattus norvegicus, UniProt P35439+Q00960); assay: PET displacement / pre-blocking of ^11C-NR2B-Me radioligands with Ro-25-6981, Lassen plots; format: in vivo; settings: for BPND (SUVBL/SUVND−1), whole rat brain: Lassen (SUV) plots; for non-displaceable binding (X-axis intercept of Lassen plots): rat brain, pre-blocking with 0.25 mg/kg Ro-25-6981, on average; for displacement from peak value at 90 min: rat whole brain, Ro-25-6981 0.25 mg/kg i.v. 10 min after radioligand, n = 1
T2 construct: from tissue; host or cells: brain of living male rats (PET imaging)
Method: (§3) For radioligand injection, a polyethylene catheter (PE 10) was inserted into the penile vein of a male rat and then secured with tissue adhesive and tape. […] Body temperature was monitored with a rectal probe. All PET scans were performed on a microPET Focus 220 scanner (Siemens Medical Solutions) (7,8). Data were acquired in listmode and reconstructed with Fourier rebinning + 2D filtered backprojection. A transmission scan was acquired before radioligand injection for attenuation correction. Dynamic scanning began at the time of a one-minute intravenous bolus injection of the radioligand under study (55 ± 19 MBq; volume 0.2 to 1.0 mL). The injected mass dose was 3 ± 1 nmol/kg. Challenge agents were administered intravenously 10 minutes before the radioligand for pre-blocking studies or 10 minutes after the radioligand for displacement studies. Tomographic images were analyzed with pixel-wise modeling computer software (PMOD 2.6; PMOD Group). Regions-of-interest in the brain were delineated, and time-activity curves calculated as SUV versus time.
(§4) Pre-blocking and displacement experiments were performed to assess radioligand target engagement and radioligand selectivity in vivo. […] Areas-under the curve (AUCs) from time-activity curves between 20 and 90 minutes were calculated for each radioligand. AUCs obtained from the same production of radioligand were scaled to the value (or mean value) for the baseline experiment to give relative values (relative AUC20–90 min). […] Where data permitted, the dose-response curves were fitted with GraphPad Prism software (version 8.1.1; GraphPad) to estimate the ED50 values. A dummy value of 100 pmol per kg body weight was used for zero concentration of the challenge agent in the construction of these dose-response curves. Numerical data are expressed as mean ± S.D. for n>2, or as mean and range for n = 2.

[5] = target: σ2 receptor; settings: cited from earlier work
[6] = target: σ1 receptor; settings: cited from earlier work
[7] = target: T3, σ1 receptors (Rattus norvegicus, UniProt Q9R0C9); assay: ED50 for pre-blocking of ^18F-FTC146 uptake in rat whole brain (PET); format: in vivo; settings: radioligand ^18F-FTC146, AUC 20-120 min
T3 construct: from tissue; host or cells: brain of living male rats (PET imaging)
Method: For radioligand injection, a polyethylene catheter (PE 10) was inserted into the penile vein of a male rat and then secured with tissue adhesive and tape. For dynamic scanning, the rats were secured with tape in the scanner and kept under 1.5% isoflurane anesthesia via a nose cone. Body temperature was monitored with a rectal probe. All PET scans were performed on a microPET Focus 220 scanner (Siemens Medical Solutions) (7,8). Data were acquired in listmode and reconstructed with Fourier rebinning + 2D filtered backprojection. A transmission scan was acquired before radioligand injection for attenuation correction. Dynamic scanning began at the time of a one-minute intravenous bolus injection of the radioligand under study (55 ± 19 MBq; volume 0.2 to 1.0 mL). The injected mass dose was 3 ± 1 nmol/kg. Challenge agents were administered intravenously 10 minutes before the radioligand for pre-blocking studies or 10 minutes after the radioligand for displacement studies. Tomographic images were analyzed with pixel-wise modeling computer software (PMOD 2.6; PMOD Group). Regions-of-interest in the brain were delineated, and time-activity curves calculated as SUV versus time.
Pre-blocking and displacement experiments were performed to assess radioligand target engagement and radioligand selectivity in vivo. Normally 4 doses of 0.01 mg/kg, 0.05 mg/kg, 0.25 mg/kg, and 1.25 mg/kg were used for preblocking experiments, and only 2 doses of 0.25 mg/kg and 1.25 mg/kg were used for displacement experiments. […] […] […] […] Where data permitted, the dose-response curves were fitted with GraphPad Prism software (version 8.1.1; GraphPad) to estimate the ED50 values. A dummy value of 100 pmol per kg body weight was used for zero concentration of the challenge agent in the construction of these dose-response curves. Numerical data are expressed as mean ± S.D. for n>2, or as mean and range for n = 2.

[8] = target: T2, GluN2B receptors; assay: ED50 for pre-blocking of GluN2B radioligand uptake in rat whole brain (PET); format: in vivo
Method: as §3, §4

[9] = PET, sixty minutes after injection
[10] = 45 min after intravenous injection

T2 sequence (Q00960 27-1482, other chains not shown): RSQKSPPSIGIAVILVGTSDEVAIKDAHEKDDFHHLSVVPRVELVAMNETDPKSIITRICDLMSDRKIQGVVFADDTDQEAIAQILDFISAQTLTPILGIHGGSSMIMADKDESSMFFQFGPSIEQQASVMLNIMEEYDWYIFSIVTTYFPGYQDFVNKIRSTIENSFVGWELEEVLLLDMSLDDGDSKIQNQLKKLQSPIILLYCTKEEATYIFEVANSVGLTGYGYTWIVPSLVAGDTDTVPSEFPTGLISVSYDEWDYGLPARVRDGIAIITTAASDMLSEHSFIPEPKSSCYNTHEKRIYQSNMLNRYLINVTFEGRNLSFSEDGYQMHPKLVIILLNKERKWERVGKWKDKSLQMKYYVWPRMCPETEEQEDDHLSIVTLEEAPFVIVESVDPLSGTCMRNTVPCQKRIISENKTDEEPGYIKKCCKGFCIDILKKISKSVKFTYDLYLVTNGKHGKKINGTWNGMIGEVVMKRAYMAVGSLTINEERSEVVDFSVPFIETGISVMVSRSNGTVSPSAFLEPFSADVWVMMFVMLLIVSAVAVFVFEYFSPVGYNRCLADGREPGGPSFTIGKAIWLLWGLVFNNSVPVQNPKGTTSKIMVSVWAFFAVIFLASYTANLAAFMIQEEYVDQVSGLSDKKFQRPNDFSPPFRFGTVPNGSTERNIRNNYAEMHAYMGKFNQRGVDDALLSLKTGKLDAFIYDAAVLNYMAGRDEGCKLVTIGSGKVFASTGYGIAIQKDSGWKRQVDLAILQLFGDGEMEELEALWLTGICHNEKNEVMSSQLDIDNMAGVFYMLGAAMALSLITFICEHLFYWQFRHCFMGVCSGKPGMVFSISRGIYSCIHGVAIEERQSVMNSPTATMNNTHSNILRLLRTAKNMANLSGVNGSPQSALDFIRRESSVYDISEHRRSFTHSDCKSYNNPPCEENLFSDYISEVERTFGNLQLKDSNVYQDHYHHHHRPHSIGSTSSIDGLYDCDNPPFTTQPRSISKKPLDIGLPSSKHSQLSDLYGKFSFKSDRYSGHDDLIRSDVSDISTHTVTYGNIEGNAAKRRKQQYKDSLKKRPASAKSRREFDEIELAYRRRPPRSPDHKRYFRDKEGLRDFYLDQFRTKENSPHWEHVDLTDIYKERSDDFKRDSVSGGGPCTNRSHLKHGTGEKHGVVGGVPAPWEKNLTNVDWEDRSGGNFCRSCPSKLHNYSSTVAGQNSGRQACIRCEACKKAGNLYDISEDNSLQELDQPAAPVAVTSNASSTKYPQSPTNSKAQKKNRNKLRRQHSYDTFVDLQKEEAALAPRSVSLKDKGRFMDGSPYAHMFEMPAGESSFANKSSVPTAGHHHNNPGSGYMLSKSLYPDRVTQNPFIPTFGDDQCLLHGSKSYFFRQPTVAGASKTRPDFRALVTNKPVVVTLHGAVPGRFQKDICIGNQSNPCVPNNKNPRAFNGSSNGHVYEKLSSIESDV
guinea pig σ1 receptor, sequence (Q60492 whole entry): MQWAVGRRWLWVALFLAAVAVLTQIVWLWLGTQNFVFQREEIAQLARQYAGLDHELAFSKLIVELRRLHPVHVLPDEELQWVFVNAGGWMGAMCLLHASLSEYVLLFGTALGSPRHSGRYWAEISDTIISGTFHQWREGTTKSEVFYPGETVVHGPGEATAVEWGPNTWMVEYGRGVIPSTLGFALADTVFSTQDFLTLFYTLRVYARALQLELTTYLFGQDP
T3 sequence (Q9R0C9 whole entry): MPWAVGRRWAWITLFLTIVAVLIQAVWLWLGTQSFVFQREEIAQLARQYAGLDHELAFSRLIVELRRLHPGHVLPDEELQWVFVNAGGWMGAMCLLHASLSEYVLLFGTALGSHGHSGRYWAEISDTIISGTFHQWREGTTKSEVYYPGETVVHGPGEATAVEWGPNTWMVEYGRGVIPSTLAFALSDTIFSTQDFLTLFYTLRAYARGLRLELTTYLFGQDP

[11CH3]Oc1ccc2c(c1)CCN(CCCCc1ccccc1)C[C@@H]2O [(R)-^11C-Me-NB1]
radioactivity concentration in cerebellum as % of that in cortex [1, 9]: 79%
radioactivity concentration in cerebellum as % of that in hippocampus [1, 9]: 74%
radioactivity concentration in cerebellum as % of that in striatum [1, 9]: 75%
radioactivity concentration in cerebellum as % of that in thalamus [1, 9]: 83%

COc1ccc2c(c1)CCN(CCCCc1ccc(C)cc1)CC2O (single isomer, unassigned; (-)) [(−)-NR2B-Me]
Ki [2]: 42 nM
Ki [3]: 110 nM

COc1ccc2c(c1)CCN(CCCCc1ccc([11CH3])cc1)CC2O (stereo not drawn) [^11C-(−)-NR2B-Me]
BPND (SUVBL/SUVND−1), whole rat brain [4]: 5
non-displaceable binding (X-axis intercept of Lassen plots) [4]: about 0.42 SUV
displacement from peak value at 90 min [4]: 63%

COc1ccc2c(c1)CCN(CCCCc1ccc([11CH3])cc1)CC2O (stereo not drawn) [^11C-(+)-NR2B-Me]
BPND (SUVBL/SUVND−1), whole rat brain [4]: 5
non-displaceable binding (X-axis intercept of Lassen plots) [4]: about 0.42 SUV
displacement from peak value at 90 min [4]: 46%

Oc1ccc2c(c1)CCN(CCCCc1ccc([18F])cc1)C[C@@H]2O [(R)-^18F-PF-NB1]
radioactivity in cerebellum as % of that in cortex [1, 10]: 85%
radioactivity in cerebellum as % of that in hippocampus [1, 10]: 110%
radioactivity in cerebellum as % of that in striatum [1, 10]: 95%
radioactivity in cerebellum as % of that in thalamus [1, 10]: 92%

COc1ccc2c(c1)CCN(CCCCc1ccc(C)cc1)CC2O (single isomer, unassigned; (+)) [(+)-NR2B-Me]
Ki [2]: 91 nM
Ki [3]: 100 nM

CN(C)CCN(C)CCc1ccc(Cl)c(Cl)c1 [BD1047]
Ki ([5]; reference radioligand ^3H-DTG, ref 39, read-out: Ki for σ2): 47 nM
Ki ([6]; reference radioligand ^3H-pentazocine, ref 39, read-out: Ki for σ1): 0.9 nM
ED50 in rat whole brain in vivo ^18F-FTC146 [7]: 169 nmol/kg
effect of pre-administration on whole rat brain radioactivity uptake of GluN2B radioligands ([8]; ^11C-NR2B-Me enantiomers (also ^11C-(S)-NR2B-SMe)): minimal effects
ED50 in rat whole brain in vivo ^11C-(+)-NR2B-Me ([8]; pre-blocking, radioligand ^11C-(+)-NR2B-Me, AUC 20-90 min): 555 nmol/kg
ED50 in rat whole brain in vivo ^11C-(−)-NR2B-Me ([8]; pre-blocking, radioligand ^11C-(−)-NR2B-Me, AUC 20-90 min): 900 nmol/kg
ED50 in rat whole brain in vivo ^11C-(−)-NR2B-SMe ([8]; pre-blocking, radioligand as printed in Table 3 head): > 1000 nmol/kg

COc1ccc2c(c1)CCN(CCCCc1ccc(SC)cc1)C[C@@H]2O [(R)-NR2B-SMe]
Ki ([5]; read-out: σ2 Ki): 110 nM
Ki ([6]; read-out: σ1 Ki): 88 nM

(+)-SKF10047
Ki ([5]; reference radioligand ^3H-DTG, ref 48, read-out: Ki for σ2): 625 nM
Ki ([6]; reference radioligand ^3H-pentazocine, ref 48, read-out: Ki for σ1): 48 nM
